# Experimental data: PubChem BioAssay (NCI)
# Values joined by “and” are separate entries in the source; they are usually repeats but may differ in a detail not shown here. Equal entries are not always repeated.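 48-hour exposure; five concentrations; linearly interpolated endpoints. GI50: concentration for 50% inhibition of growth. TGI: total growth inhibition.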 Where a SMILES comes first, the peptide text is derived from it. [ ]: non-standard residue; d: D form. The star is where a group is joined. ξ: configuration not given here. X3 = COc1ccc(C(N*)c2ccc(OC)cc2)cc1; NMeF = CN[C@@H](Cc1ccccc1)C(=O)O; NMeD = CN[C@@H](CC(=O)O)C(=O)O; NMeV = CN[C@H](C(=O)O)C(C)C; ξNMeV = CNC(C(=O)O)C(C)C; Boc = CC(C)(C)OC(=O)*; ξNMeA = CNC(C)C(=O)O; ξV = CC(C)C(N)C(=O)O
# Legend:
# Test in all cases: growth of human tumour cells (NCI), 48 h
# [1] = tested on: SF-268 CNS
# [2] = tested on: HOP-62 NSCLC
# [3] = tested on: LOX IMVI melanoma
# [4] = tested on: A549 NSCLC
# [5] = tested on: HCT-116 colon
# [6] = tested on: DU-145 prostate
# [7] = tested on: NCI-H460 lung
# [8] = tested on: SK-MEL-5 melanoma
# [9] = tested on: BT-549 breast
# [10] = tested on: MCF7 breast
SMILES,GI50 [1],TGI [1],GI50 [2],TGI [2],GI50 [3],TGI [3],GI50 [4],TGI [4],GI50 [5],TGI [5],GI50 [6],TGI [6] [µM],GI50 [7],TGI [7],GI50 [8],TGI [8],GI50 [9] [µM],TGI [9],GI50 [10],TGI [10] [µM]
CCOC(=O)C1=C(C)N(c2ccc(F)cc2F)[C@]2(C#N)C(O)=C(Cl)C(Cl)=C(O)[C@]12C#N,> 100 µM,> 100 µM,> 100 µM,> 100 µM,> 100 µM,> 100 µM,> 100 µM,> 100 µM,> 100 µM,> 100 µM,> 100 µM,> 100,> 100 µM,> 100 µM,> 100 µM,> 100 µM,> 100,> 100 µM,> 100 µM,> 100
CCCCCCCCCCCCC(O)c1ccc(C#CCCCCCCCCCO)o1 (stereo not given),23.2 µM,49.4 µM,20.1 µM,35.5 µM,18.5 µM,33.5 µM,16.9 µM,32.9 µM,14.4 µM,27.4 µM,18.8 µM,33,28.3 µM,75.4 µM,25.5 µM,47.2 µM,21.7,42.3 µM,17.3 µM,42.3
COc1cccc(C(=O)NC(c2ccc(C)cc2)c2cc(Cl)c3cccnc3c2O)c1 (stereo not given),0.619 µM,12.4 µM,0.496 µM,9.58 µM,0.563 µM,11.6 µM,0.473 µM,11.2 µM,0.495 µM,14.4 µM,1.14 µM,14.3,0.359 µM,4.66 µM,0.318 µM,1.32 µM,1.32,18.6 µM,0.371 µM,> 30.4
CN(C)c1cc(NN=C(c2ccc(O)cc2)c2ccc(O)cc2)c([N+](=O)[O-])cc1[N+](=O)[O-],3.88 µM,15.9 µM,10.5 µM,26.1 µM,3.04 µM,15.2 µM,4.45 µM,18.5 µM,5.14 µM,21.1 µM,10.2 µM,23.6,4.36 µM,15.9 µM,3.17 µM,14.4 µM,6.32,21.5 µM,3.42 µM,16
CCN(Cc1ccc(F)cc1)c1cc(Cl)c(CO)c(Cl)c1,13.6 µM,27.7 µM,14 µM,27.2 µM,14.7 µM,29.3 µM,12.3 µM,29.1 µM,5.15 µM,18.7 µM,16.8 µM,31.6,11.8 µM,25.9 µM,13.5 µM,26.5 µM,13.6,28.3 µM,13.7 µM,28
Nc1cc(NN=C(c2ccc(O)cc2)c2ccc(O)cc2)c([N+](=O)[O-])cc1[N+](=O)[O-],1.73 µM,3.45 µM,2.13 µM,3.98 µM,1.65 µM,3.1 µM,2.29 µM,5.69 µM,2 µM,4.23 µM,1.64 µM,2.99,1.79 µM,3.47 µM,1.52 µM,2.85 µM,2.46,6.78 µM,1.56 µM,3.28
O=C(Nc1ccc(Oc2ccc(Nc3nc4ccccc4s3)cc2)cc1)Nc1ccc(Cl)c(C(F)(F)F)c1,1.94 µM,4.74 µM,1.82 µM,4.03 µM,1.42 µM,2.76 µM,1.97 µM,6.26 µM,1.31 µM,2.61 µM,2.47 µM,7.22,1.74 µM,4.34 µM,1.45 µM,2.79 µM,1.54,3.05 µM,1.35 µM,3.7
O=C(CCCSc1nc(-c2ccccc2)cc(-c2ccccc2)n1)NO,2.03 µM,5.76 µM,0.671 µM,4.4 µM,2.26 µM,5.47 µM,2.63 µM,10.1 µM,0.657 µM,11.7 µM,1.83 µM,11.4,0.488 µM,11.2 µM,1.41 µM,3.17 µM,2.66,17 µM,2.1 µM,14.3
COc1ccc(C(NC(=O)C[C@@H](C(=O)N(C)C(C)C(=O)O)N(C)C(=O)[C@@H]2CCCN2C(=O)[C@H](C(C)C)N(C)C(=O)C(C(C)C)N(C)C(=O)[C@H](Cc2ccccc2)N(C)C(=O)C(NC(=O)OC(C)(C)C)C(C)C)c2ccc(OC)cc2)cc1 (stereo not given in full) (Boc-[ξV][NMeF][ξNMeV][NMeV]P[NMeD](X3)[ξNMeA]-OH),15.1 µM,31.9 µM and 28.6 µM,18.5 µM,31.8 µM and 35.5 µM,17.2 µM,15.7 µM and 31.2 µM,17.1 µM,> 37.5 µM and 31.7 µM,17.3 µM,36.2 µM and 34.6 µM,,37.5,17.8 µM,37.5 µM and 33.3 µM,15.2 µM,12.7 µM and 28.5 µM,,15.4 µM,,37.5
C[C@]12CCC3c4ccc(O)cc4CCC3C1CC[C@@]2(O)CNC(=O)/C=C/c1ccc(O)c(O)c1 (stereo not given in full),9.45 µM,> 100 µM,6.78 µM,22.6 µM,2.37 µM,6.52 µM,2.63 µM,9.68 µM,3.34 µM,11.2 µM,3.29 µM,14.8,4.9 µM,31.6 µM,3.23 µM,12 µM,3.03,15.3 µM,12.4 µM,45.4
CCC(=C/[C@H](C)C/C=C/C(C)=C/[C@@H](C)C(=O)[C@@H](C)[C@H](O)[C@@H](C)CC)/C=C/[C@H]1OC(=O)C=C[C@@H]1C,< 0.01 µM,1.72 µM,< 0.01 µM,1.01 µM,< 0.01 µM,1.23 µM,< 0.01 µM,,< 0.01 µM,0.0106 µM,< 0.01 µM,4.56,< 0.01 µM,1.88 µM,< 0.01 µM,0.0342 µM,< 0.01,0.429 µM,< 0.01 µM,1.26
COCCOc1ccc(-c2nc3ccc(-c4nc5ccc(N6CCN(C)CC6)cc5[nH]4)cc3[nH]2)cc1,0.576 µM,5.67 µM,1.56 µM,14.5 µM,0.851 µM,2.83 µM,8.05 µM,35.2 µM,0.358 µM,2.46 µM,1.13 µM,9.59,3.63 µM,14.7 µM,0.351 µM,1.88 µM,1.76,3.96 µM,0.316 µM,11.8
COc1cc(C2CC(C)(O)Oc3cc4c(cc32)OCO4)cc(OC)c1OC (stereo not given),,> 100 µM,,> 100 µM,,> 100 µM,,> 100 µM,,> 100 µM,,> 100,,17.6 µM,,0.494 µM,,> 100 µM,,23.6
O=C1NC(=NC(CO)Cc2ccccc2)S/C1=C\c1ccc2ncccc2c1 (stereo not given),20 µM and 4.36 µM,> 25 µM,> 23.4 µM and 6.05 µM,> 25 µM,16.5 µM and 3.85 µM,> 25 µM,16.4 µM and 2.96 µM,> 25 µM,9.89 µM and 1.13 µM,> 25 µM,18.8 µM and 2.62 µM,> 25,14.6 µM and 3.02 µM,> 25 µM,> 25 µM and 5.17 µM,> 25 µM and 12.3 µM,,> 25 µM and 11.4 µM,7.25 µM and 2.98 µM,> 25
COc1cccc(C2SC(N)=Nc3c2c(C)nn3C(=O)c2ccccc2O)c1 (stereo not given),,> 10 µM,,> 10 µM,,> 10 µM,,> 10 µM,,> 10 µM,,> 10,,> 10 µM,,> 10 µM,,> 10 µM,,> 10
O=CNc1ccc2c(c1)C(=O)c1ccccc1-2,,> 100 µM,,> 100 µM,,> 100 µM,,> 100 µM,,> 100 µM,,> 100,,> 100 µM,,> 100 µM,,> 100 µM,,> 100
CC1(C)OC1COc1c2occc2cc2ccc(=O)oc12 (stereo not given),,> 100 µM,,> 100 µM,,> 100 µM,,> 100 µM,,> 100 µM,,> 100,,> 100 µM,,> 100 µM,,> 100 µM,,> 100
O=C(O)c1ccc2c(c1C(=O)O)C(=O)OC2(c1ccc(O)cc1)c1ccc(O)cc1,,> 100 µM,,> 100 µM,,> 100 µM,,> 100 µM,,> 100 µM,,> 100,,> 100 µM,,> 100 µM,,> 100 µM,,> 100
O=S(=O)(c1ccccc1)N1CCN(S(=O)(=O)c2ccccc2)c2ccccc21,,> 100 µM,,> 100 µM,,> 100 µM,,> 100 µM,,> 100 µM,,> 100,,> 100 µM,,> 100 µM,,> 100 µM,,> 100
CN(C)CC1CC/C(=C\c2ccc(O)cc2)C1=O (stereo not given),,23.1 µM,,33.6 µM,,5.51 µM,,40.9 µM,,4.09 µM,,29.6,,37.2 µM,,20.4 µM,,3.73 µM,,4.56
O=C1CCCCN1c1ccccc1C#C/C=C\C#Cc1ccccc1C(F)(F)F,3.81 µM,> 50 µM,0.899 µM,2.94 µM,1.84 µM,8.87 µM,1.57 µM,5.16 µM,1.01 µM,2.59 µM,1.68 µM,8.5,2.16 µM,> 50 µM,2.75 µM,12.7 µM,2.59,14.5 µM,2.5 µM,> 50
CC(C)[C@@H]1C=C2CC[C@H]3[C@](C)(CN)CCC[C@]3(C)[C@H]2CC1,7.27 µM,20.7 µM,3.33 µM,10.9 µM,1.52 µM,2.85 µM,3.07 µM,11 µM,1.77 µM,3.18 µM,2.05 µM,4.08,1.8 µM,3.34 µM,13.1 µM,25.8 µM,16.5,35.4 µM,1.62 µM,3.06
CC1=C2C(=C[C@@](C)(CO)[C@@H]2O)C(=O)[C@](C)(O)C12CC2,,0.0192 µM and 0.106 µM,,0.0263 µM and 0.0432 µM,,0.0376 µM,,0.0885 µM and 0.2 µM,,0.104 µM and 0.135 µM,,0.0597,,0.00701 µM and 0.0108 µM,,0.0183 µM,,0.0518 µM,,0.0687
Nc1n[nH]c2cccc(C#Cc3cccc(C(=O)Nc4ccc(CN5CCOCC5)c(C(F)(F)F)c4)c3)c12,2.72 µM,13.3 µM,2.88 µM,10.1 µM,1.67 µM,4.02 µM,3.13 µM,11.3 µM,1.53 µM,5.2 µM,3.93 µM,13.3,3.2 µM,10.3 µM,1.4 µM,3.26 µM,2.14,6.03 µM,2.41 µM,10.3
CCCOc1cc2ccccc2cc1C(=O)Nc1nc(N)c2c(ccc3nccc32)[nH]1,0.0658 µM,2.86 µM,0.0798 µM,2.69 µM,0.0511 µM,2.02 µM,0.0993 µM,1.86 µM,0.0461 µM,1.22 µM,0.0487 µM,1.45,0.0417 µM,1.31 µM,0.0413 µM,1.04 µM,0.0998,2.11 µM,0.0459 µM,1.5
c1ccc(Sc2ncnc3ccccc23)cc1,13.9 µM,41.7 µM,16.3 µM,40.5 µM,6.27 µM,19.8 µM,18.1 µM,68.3 µM,10.9 µM,23.7 µM,12 µM,24.9,24.2 µM,> 100 µM,11.4 µM,24 µM,5.42,22 µM,17.8 µM,67.9
O=C(O)c1nc2nc(Cl)c(Cl)nc2[nH]1,,> 100 µM,,> 100 µM,,> 100 µM,,> 100 µM,,> 100 µM,,> 100,,> 100 µM,,> 100 µM,,> 100 µM,,> 100
